Here are results for 16 compounds from patent publication US9879023B2, “Therapeutic compounds” (Gilead Sciences, Inc., priority 2011, dated 2018).

The experiment has as its system HIV-IIIb (MT-4 cells). In words: Test A: Antiviral Assays in MT4 Cells. Type of experiment: cell-based. To be noted: MT-4 cells infected with HIV-IIIb (0.004 m.o.i.), 5 days incubation, CellTiter-Glo readout, read-out: EC50. As to the method:
Test A: Antiviral Assays in MT4 Cells
For the antiviral assay utilizing MT-4 cells, 0.4 μL of […] test concentration of 3-fold serially diluted compound in DMSO was added to 40 μL of cell growth medium (RPMI 1640, 10% FBS, 1% penicilline/Streptomycine, 1% L-Glutamine, 1% HEPES) in each well of 384-well assay plates (10 concentrations) in quadruplicate.
1 mL aliquots of 2×10e6 MT-4 cells are pre-infected for 1 and 3 hrs respectively, @37° C. with 25 uL (MT4) or of either cell growth medium (mock-infected) or a fresh 1:250 dilution of an HIV-IIIb concentrated ABI stock (0.004 m.o.i. for MT4 cells). Infected and uninfected cells are diluted in cell growth medium and 35 uL of 2000 (for MT4) cells is added to each well of the assay plates.
Assay plates were then incubated in a 37° C. incubator. After 5 days of incubation, 25 μl of 2× concentrated CellTiter-Glo™ Reagent (catalog # G7573, Promega Biosciences, Inc., Madison, Wis.) was added to each well of the assay plate. Cell lysis was carried out by incubating at room temperature for 2-3 min and then chemiluminescence was read using the Envision reader (PerkinElmer). […]

The mark [1] stands for this setting: Human immunodeficiency virus 1, IIIB, MT4, 120 h.

Read-outs that look alike come from different tables or passages of the source.

With `Cc1cc2nc(C3CC3)sc2c(-c2ccc(Cl)cc2)c1[C@H](OC(C)(C)C)C(=O)O` [Compound 10], under setting [1], the EC50 stood at 121 nM. With `Cc1cc2nc(C(=O)NCCc3ccccc3)sc2c(-c2ccc3c4c(ccnc24)CCO3)c1[C@H](OC(C)(C)C)C(=O)O` (atropisomer, axis not shown) [Compound 98, (S)-2-tert-butoxy-2-((S)-7-(2,3-dihydropyrano[4,3,2-de]quinolin-7-yl)-5-methyl-2-(phenethylcarbamoyl)benzo[d]thiazol-6-yl)acetic acid], the EC50 under setting [1] worked out at 2510 nM. Consider `Cc1cc2nc(C3=CCCC3)sc2c(-c2ccc3c4c(ccnc24)CCO3)c1[C@H](OC(C)(C)C)C(=O)O` (atropisomer, axis not shown) [Compound 79, (S)-2-tert-butoxy-2-((R)-2-cyclopentenyl-7-(2,3-dihydropyrano[4,3,2-de]quinolin-7-yl)-5-methylbenzo[d]thiazol-6-yl)acetic acid], for which the EC50 was determined as 45900 nM. In the case of `CC(=O)Nc1nc2cc(C)c([C@H](OC(C)(C)C)C(=O)O)c(-c3ccc4c5c(ccnc35)CCO4)c2s1` (atropisomer, axis not shown) [Compound 93, (S)-2-((S)-2-acetamido-7-(2,3-dihydropyrano[4,3,2-de]quinolin-7-yl)-5-methylbenzo[d]thiazol-6-yl)-2-tert-butoxyacetic acid], the EC50 under setting [1] turned out to be 1420 nM. As for `Cc1cc2nc(N3CCC3)sc2c(-c2ccc3c4c(ccnc24)CCO3)c1[C@H](OC(C)(C)C)C(=O)O` [Compound 35, (S)-2-((S)-2-(azetidin-1-yl)-7-(2,3-dihydropyrano[4,3,2-de]quinolin-7-yl)-5-methylbenzo[d]thiazol-6-yl)-2-tert-butoxyacetic acid], the EC50 was 12.7 nM. In the case of `CCN(C)c1nc2cc(C)c([C@H](OC(C)(C)C)C(=O)O)c(-c3ccc4c5c(ccnc35)CCO4)c2s1` (atropisomer, axis not shown) [Compound 44, (S)-2-tert-butoxy-2-((S)-7-(2,3-dihydropyrano[4,3,2-de]quinolin-7-yl)-2-(ethyl(methyl)amino)-5-methylbenzo[d]thiazol-6-yl)acetic acid], under setting [1], the EC50 worked out at 18.7 nM. The same measure, in the same setting: the value for `Cc1cc2nc(N(C)CC(=O)N(C)C)sc2c(-c2ccc3c4c(ccnc24)CCO3)c1[C@H](OC(C)(C)C)C(=O)O` (atropisomer, axis not shown) [Compound 64, (S)-2-tert-butoxy-2-((R)-7-(2,3-dihydropyrano[4,3,2-de]quinolin-7-yl)-2-((2-(dimethylamino)-2-oxoethyl)(methyl)amino)-5-methylbenzo[d]thiazol-6-yl)acetic acid] was 53000 nM; that for `Cc1cc2nc(C(=O)O)sc2c(-c2ccc3c4c(ccnc24)CCO3)c1[C@H](OC(C)(C)C)C(=O)O` (atropisomer, axis not shown) [Compound 41] was 923 nM. Still for that read-out and setting: the value for `Cc1cc2c(sc(=O)n2Cc2ccc(C(F)(F)F)cc2)c(-c2ccc3c4c(ccnc24)CCO3)c1[C@H](OC(C)(C)C)C(=O)O` (atropisomer, axis not shown) [Compound 74, (S)-2-tert-butoxy-2-((S)-7-(2,3-dihydropyrano[4,3,2-de]quinolin-7-yl)-5-methyl-2-oxo-3-(4-(trifluoromethyl)benzyl)-2,3-dihydrobenzo[d]thiazol-6-yl)acetic acid] was 650 nM.

As to `Cc1cc2c(sc(=O)n2Cc2ccccc2C(F)(F)F)c(-c2ccc3c4c(ccnc24)CCO3)c1[C@H](OC(C)(C)C)C(=O)O` (atropisomer, axis not shown) [Compound 71, (S)-2-tert-butoxy-2-((S)-7-(2,3-dihydropyrano[4,3,2-de]quinolin-7-yl)-5-methyl-2-oxo-3-(2-(trifluoromethyl)benzyl)-2,3-dihydrobenzo[d]thiazol-6-yl)acetic acid], under setting [1], the EC50 was 984 nM. `Cc1cc2nc(N(C)CCN(C)C)sc2c(-c2ccc3c4c(ccnc24)CCO3)c1[C@H](OC(C)(C)C)C(=O)O` (atropisomer, axis not shown) [Compound 61, (S)-2-tert-butoxy-2-((S)-7-(2,3-dihydropyrano[4,3,2-de]quinolin-7-yl)-2-((2-(dimethylamino)ethyl)(methyl)amino)-5-methylbenzo[d]thiazol-6-yl)acetic acid]: the EC50 is 987 nM. `Cc1cc2nc(C(N)=O)sc2c(-c2ccc3c4c(ccnc24)CCO3)c1[C@H](OC(C)(C)C)C(=O)O` [Compound 40, (S)-2-tert-butoxy-2-((S)-2-carbamoyl-7-(2,3-dihydropyrano[4,3,2-de]quinolin-7-yl)-5-methylbenzo[d]thiazol-6-yl)acetic acid]: the EC50 under setting [1] is 722 nM. `Cc1cc2nc(C3CCC3)sc2c(-c2ccc3c4c(ccnc24)CCO3)c1[C@H](OC(C)(C)C)C(=O)O` (atropisomer, axis not shown) [Compound 82, (S)-2-tert-butoxy-2-((S)-2-cyclobutyl-7-(2,3-dihydropyrano[4,3,2-de]quinolin-7-yl)-5-methylbenzo[d]thiazol-6-yl)acetic acid]: the EC50 under setting [1] was determined as 40.2 nM. Regarding `Cc1cc2nc(C3CCCC3)sc2c(-c2ccc3c4c(ccnc24)CCO3)c1[C@H](OC(C)(C)C)C(=O)O` (atropisomer, axis not shown) [Compound 80, (S)-2-tert-butoxy-2-((S)-2-cyclopentyl-7-(2,3-dihydropyrano[4,3,2-de]quinolin-7-yl)-5-methylbenzo[d]thiazol-6-yl)acetic acid], the EC50 is 136 nM. Regarding `Cc1cc2nc(N(C)C)sc2c(-c2ccc(Cl)cc2)c1[C@H](OC(C)(C)C)C(=O)O` [Compound 12], the EC50 under setting [1] amounted to 113 nM.

As for `Cc1cc2ncsc2c(-c2ccc3c4c(ccnc24)CCO3)c1[C@H](OC(C)(C)C)C(=O)O` (atropisomer, axis not shown) [Compound 95, (S)-2-tert-butoxy-2-((S)-7-(2,3-dihydropyrano[4,3,2-de]quinolin-7-yl)-5-methylbenzo[d]thiazol-6-yl)acetic acid], under setting [1], the EC50 was found to be 655 nM.
